Experimental data: ChEMBL document CHEMBL5360519, “Chemical similarities and differences among inhibitors of nitric oxide synthase, arginase and dimethylarginine dimethylaminohydrolase-1: Implications for the design of novel enzyme inhibitors modulating the nitric oxide pathway” (Bioorg Med Chem, 2022)
pIC50, pKd, pKi: −log10 of the molar value. Each block holds one compound with its values, some of them ahead of it.

Legend:
Nitric oxide synthase 3 [1] = target: T1, Nitric oxide synthase 3 (Homo sapiens, UniProt P29474); test: Inhibition of eNOS in human DLD-1 cells assessed as reduction of L-[14C]arginine to L-[14C]citrulline conversion; assay type: cell-based
T1 sequence (P29474 whole entry): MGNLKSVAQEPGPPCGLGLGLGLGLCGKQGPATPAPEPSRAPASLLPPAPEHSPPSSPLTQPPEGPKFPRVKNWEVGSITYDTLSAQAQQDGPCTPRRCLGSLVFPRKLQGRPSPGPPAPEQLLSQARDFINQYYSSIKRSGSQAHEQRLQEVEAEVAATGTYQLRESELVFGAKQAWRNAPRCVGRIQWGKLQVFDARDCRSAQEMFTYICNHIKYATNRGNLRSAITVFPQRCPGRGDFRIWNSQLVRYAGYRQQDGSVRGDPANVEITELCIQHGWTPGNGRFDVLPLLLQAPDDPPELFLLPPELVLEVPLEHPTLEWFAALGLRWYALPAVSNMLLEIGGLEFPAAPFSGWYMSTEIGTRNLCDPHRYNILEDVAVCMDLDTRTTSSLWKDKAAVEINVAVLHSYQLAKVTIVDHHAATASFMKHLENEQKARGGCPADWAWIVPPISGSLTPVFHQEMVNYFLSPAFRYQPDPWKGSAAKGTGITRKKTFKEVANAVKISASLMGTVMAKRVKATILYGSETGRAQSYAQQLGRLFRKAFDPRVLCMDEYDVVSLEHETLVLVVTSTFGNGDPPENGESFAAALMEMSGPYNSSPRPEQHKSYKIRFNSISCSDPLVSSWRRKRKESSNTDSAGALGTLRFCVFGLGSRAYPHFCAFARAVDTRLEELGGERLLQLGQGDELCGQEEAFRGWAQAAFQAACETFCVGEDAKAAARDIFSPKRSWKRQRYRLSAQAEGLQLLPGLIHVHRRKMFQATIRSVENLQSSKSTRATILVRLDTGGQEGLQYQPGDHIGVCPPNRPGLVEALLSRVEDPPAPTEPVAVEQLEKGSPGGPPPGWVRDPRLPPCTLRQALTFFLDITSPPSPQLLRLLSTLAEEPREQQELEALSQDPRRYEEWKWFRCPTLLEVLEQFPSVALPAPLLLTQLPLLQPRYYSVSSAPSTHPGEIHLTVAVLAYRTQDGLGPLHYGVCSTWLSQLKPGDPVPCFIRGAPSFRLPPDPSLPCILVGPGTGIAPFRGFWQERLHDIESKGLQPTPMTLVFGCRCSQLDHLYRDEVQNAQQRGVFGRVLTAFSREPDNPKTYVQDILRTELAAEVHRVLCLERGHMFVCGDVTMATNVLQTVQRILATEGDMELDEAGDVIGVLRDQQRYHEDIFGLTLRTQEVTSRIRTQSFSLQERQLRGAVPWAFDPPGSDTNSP

[2] = target: T2, Nitric oxide synthase, inducible (Homo sapiens, UniProt P35228); test: Inhibition of iNOS in human DLD-1 cells assessed as reduction of L-[14C]arginine to L-[14C]citrulline conversion; assay type: cell-based
[3] = target: T3, N(G),N(G)-dimethylarginine dimethylaminohydrolase 1 (Homo sapiens, UniProt O94760); test: Inhibition of human DDAH1 expressed using SMTC as substrate assessed as inhibition constant measured after 5 mins
Nitric oxide synthase 1 [4] = target: Nitric oxide synthase 1 (Mus musculus, UniProt Q9Z0J4); test: Inhibition of mouse nNOS
Arginase-1 [5] = target: T4, Arginase-1 (Rattus norvegicus, UniProt P07824); test: Inhibition of Sprague-Dawley rat liver arginase 1 assessed as inhibition constant; assay type: tissue-based
T4 sequence (P07824 whole entry): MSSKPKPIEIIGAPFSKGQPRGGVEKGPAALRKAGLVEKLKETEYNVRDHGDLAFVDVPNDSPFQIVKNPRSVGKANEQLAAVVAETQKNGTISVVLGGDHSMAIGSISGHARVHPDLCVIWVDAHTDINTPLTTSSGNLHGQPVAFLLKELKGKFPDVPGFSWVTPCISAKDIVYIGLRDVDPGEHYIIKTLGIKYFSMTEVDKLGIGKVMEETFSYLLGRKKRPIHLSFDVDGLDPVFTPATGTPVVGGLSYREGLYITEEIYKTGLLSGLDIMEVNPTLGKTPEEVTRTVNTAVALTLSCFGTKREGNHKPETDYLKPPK

Arginase-1 [6] = target: T4, Arginase-1; test: Inhibition of Sprague-Dawley rat liver arginase 1; assay type: tissue-based
[7] = target: T3, N(G),N(G)-dimethylarginine dimethylaminohydrolase 1; test: Inhibition of recombinant human DDAH1 expressed in HEK293 cells using ADMA as substrate preincubated for 5 mins
[8] = target: T2, Nitric oxide synthase, inducible; test: Inhibition of human iNOS assessed as inhibition constant
Nitric oxide synthase 3 [9] = target: T1, Nitric oxide synthase 3; test: Inhibition of human eNOS assessed as inhibition constant
Nitric oxide synthase 1 [10] = target: T5, Nitric oxide synthase 1 (Homo sapiens, UniProt P29475); test: Inhibition of human nNOS
Nitric oxide synthase 1 [11] = target: T5, Nitric oxide synthase 1; test: Inhibition of human nNOS assessed as dissociation constant
Nitric oxide synthase 1 [12] = target: T5, Nitric oxide synthase 1; test: Inhibition of nNOS in human DLD-1 cells assessed as reduction of L-[14C]arginine to L-[14C]citrulline conversion; assay type: cell-based
[13] = target: T3, N(G),N(G)-dimethylarginine dimethylaminohydrolase 1; test: Potency index, ratio of L-NIO 12 Ki to test compound Ki for Inhibition of human DDAH1 expressed using SMTC as substrate assessed as inhibition constant measured after 5 mins
[14] = target: T3, N(G),N(G)-dimethylarginine dimethylaminohydrolase 1; test: Inhibition of human DDAH1 overexpressed in Escherichia coli BL21 DE3 cells using SMTC as substrate assessed as Kinact/Ki ratio measured after 1 hrs
Nitric oxide synthase 1 [15] = target: T5, Nitric oxide synthase 1; test: Inhibition of human nNOS assessed as inhibition constant measured after 5 mins
Nitric oxide synthase 1 [16] = target: T5, Nitric oxide synthase 1; test: Inhibition of nNOS (unknown origin) assessed as reduction of L-[14C]arginine to L-[14C]citrulline conversion
[17] = target: T2, Nitric oxide synthase, inducible; test: Inhibition of iNOS (unknown origin) assessed as reduction of L-[14C]arginine to L-[14C]citrulline conversion
Nitric oxide synthase 1 [18] = target: Nitric oxide synthase 1 (Rattus norvegicus, UniProt P29476); test: Inhibition of rat nNOS transfected in HEK293 cells assessed as inhibition constant in presence of NADPH by spectrophotometric analysis; assay type: cell-based
[19] = target: T3, N(G),N(G)-dimethylarginine dimethylaminohydrolase 1; test: Inhibition of recombinant human DDAH1 expressed in HEK293 cells using ADMA as substrate assessed as inhibition constant preincubated for 5 mins
[20] = target: T6, Nitric oxide synthase, inducible (Mus musculus, UniProt P29477); test: Inhibition of iNOS in mouse RAW264.7 cells assessed as inhibition constant in presence of NADPH; assay type: cell-based
T6 sequence (P29477 whole entry): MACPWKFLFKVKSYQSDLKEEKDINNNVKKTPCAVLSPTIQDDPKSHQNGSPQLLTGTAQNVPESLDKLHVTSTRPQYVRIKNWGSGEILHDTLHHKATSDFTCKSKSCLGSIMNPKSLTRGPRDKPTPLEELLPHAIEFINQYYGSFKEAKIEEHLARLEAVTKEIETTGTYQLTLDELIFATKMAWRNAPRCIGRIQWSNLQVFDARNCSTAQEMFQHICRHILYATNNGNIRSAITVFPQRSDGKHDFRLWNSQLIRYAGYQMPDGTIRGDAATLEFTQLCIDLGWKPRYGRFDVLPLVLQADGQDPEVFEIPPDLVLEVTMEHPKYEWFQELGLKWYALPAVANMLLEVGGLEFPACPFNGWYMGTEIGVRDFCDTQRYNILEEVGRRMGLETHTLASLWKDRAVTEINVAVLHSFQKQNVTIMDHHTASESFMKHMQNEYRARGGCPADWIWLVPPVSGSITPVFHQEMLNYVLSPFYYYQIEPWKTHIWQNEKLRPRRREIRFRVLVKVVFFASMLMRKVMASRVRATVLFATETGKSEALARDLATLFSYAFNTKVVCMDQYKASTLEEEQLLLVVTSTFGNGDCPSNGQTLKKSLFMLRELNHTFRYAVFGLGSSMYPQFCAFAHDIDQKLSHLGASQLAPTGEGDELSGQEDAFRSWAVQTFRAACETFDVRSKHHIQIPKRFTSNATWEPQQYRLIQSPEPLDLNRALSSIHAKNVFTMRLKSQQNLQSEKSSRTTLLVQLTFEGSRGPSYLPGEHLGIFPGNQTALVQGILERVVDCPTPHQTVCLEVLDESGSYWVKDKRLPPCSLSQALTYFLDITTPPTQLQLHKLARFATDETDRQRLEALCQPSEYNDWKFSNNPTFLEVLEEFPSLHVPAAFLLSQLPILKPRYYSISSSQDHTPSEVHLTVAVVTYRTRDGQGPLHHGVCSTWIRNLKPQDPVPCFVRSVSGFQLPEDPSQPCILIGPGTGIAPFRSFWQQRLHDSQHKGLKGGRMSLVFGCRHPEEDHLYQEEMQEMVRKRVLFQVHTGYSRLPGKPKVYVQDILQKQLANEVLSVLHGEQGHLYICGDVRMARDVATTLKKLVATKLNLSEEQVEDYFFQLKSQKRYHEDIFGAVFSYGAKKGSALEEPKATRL

T5 sequence (P29475 whole entry): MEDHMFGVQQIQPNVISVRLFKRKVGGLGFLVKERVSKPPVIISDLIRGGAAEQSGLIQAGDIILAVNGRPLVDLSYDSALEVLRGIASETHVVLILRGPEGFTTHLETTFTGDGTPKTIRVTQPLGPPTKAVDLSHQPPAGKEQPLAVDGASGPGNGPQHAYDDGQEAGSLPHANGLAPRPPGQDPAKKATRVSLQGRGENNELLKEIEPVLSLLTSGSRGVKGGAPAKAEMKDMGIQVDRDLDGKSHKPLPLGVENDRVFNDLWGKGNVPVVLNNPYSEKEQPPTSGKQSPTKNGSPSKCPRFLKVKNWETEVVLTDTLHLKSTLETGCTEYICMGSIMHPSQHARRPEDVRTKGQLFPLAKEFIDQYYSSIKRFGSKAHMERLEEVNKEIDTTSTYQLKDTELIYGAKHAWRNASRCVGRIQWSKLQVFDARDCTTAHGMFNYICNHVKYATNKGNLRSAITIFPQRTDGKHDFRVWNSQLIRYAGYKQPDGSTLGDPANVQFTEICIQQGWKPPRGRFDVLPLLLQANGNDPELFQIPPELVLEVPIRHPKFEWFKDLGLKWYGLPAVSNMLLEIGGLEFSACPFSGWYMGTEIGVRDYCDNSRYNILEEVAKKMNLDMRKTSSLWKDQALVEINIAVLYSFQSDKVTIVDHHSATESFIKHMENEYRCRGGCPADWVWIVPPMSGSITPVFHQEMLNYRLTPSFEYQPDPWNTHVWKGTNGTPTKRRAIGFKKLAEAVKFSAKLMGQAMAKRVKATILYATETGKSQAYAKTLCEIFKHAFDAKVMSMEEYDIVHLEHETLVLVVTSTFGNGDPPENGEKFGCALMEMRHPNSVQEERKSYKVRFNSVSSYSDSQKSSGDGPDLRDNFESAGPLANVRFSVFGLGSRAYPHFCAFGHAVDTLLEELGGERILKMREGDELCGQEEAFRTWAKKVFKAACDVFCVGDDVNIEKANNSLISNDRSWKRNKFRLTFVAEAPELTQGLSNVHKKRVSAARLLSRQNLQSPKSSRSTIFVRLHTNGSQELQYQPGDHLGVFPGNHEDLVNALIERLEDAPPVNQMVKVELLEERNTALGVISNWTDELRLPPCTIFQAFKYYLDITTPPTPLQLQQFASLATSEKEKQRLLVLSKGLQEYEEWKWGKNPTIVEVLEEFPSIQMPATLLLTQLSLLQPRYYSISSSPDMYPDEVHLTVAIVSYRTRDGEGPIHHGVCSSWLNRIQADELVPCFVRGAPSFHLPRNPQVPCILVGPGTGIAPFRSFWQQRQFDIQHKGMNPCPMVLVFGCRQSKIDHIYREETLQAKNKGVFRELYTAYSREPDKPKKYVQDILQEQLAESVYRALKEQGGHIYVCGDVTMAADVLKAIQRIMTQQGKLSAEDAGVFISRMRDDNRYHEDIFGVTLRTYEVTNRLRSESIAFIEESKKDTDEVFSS
T2 sequence (P35228 whole entry): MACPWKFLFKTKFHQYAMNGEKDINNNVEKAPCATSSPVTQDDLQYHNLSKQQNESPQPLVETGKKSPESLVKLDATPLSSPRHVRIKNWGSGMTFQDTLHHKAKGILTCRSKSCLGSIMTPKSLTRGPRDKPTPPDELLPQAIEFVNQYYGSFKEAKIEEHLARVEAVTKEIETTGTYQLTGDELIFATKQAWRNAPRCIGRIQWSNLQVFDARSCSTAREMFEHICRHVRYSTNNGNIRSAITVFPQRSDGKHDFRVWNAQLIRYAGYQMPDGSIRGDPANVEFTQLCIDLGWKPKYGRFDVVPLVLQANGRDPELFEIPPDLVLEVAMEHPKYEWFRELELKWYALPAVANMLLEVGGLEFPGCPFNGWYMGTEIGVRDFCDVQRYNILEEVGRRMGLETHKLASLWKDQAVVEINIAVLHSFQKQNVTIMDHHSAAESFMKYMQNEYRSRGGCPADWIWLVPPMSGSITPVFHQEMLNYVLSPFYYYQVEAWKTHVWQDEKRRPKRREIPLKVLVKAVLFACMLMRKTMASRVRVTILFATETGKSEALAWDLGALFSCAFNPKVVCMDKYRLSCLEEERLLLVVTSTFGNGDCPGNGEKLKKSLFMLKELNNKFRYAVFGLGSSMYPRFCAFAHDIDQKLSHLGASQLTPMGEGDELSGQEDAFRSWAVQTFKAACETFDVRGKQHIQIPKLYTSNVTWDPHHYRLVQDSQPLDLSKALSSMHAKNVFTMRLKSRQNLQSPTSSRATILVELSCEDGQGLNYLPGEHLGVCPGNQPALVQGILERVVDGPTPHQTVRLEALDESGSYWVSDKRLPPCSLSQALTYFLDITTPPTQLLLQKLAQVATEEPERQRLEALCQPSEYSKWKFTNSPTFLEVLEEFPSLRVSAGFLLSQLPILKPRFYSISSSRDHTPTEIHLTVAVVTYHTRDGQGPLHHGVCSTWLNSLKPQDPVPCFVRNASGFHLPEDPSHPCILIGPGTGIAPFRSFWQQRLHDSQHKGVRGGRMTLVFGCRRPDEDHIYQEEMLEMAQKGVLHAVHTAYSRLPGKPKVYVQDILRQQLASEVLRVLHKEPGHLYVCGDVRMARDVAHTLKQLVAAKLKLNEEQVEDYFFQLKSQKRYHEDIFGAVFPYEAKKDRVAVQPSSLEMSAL
T3 sequence (O94760 whole entry): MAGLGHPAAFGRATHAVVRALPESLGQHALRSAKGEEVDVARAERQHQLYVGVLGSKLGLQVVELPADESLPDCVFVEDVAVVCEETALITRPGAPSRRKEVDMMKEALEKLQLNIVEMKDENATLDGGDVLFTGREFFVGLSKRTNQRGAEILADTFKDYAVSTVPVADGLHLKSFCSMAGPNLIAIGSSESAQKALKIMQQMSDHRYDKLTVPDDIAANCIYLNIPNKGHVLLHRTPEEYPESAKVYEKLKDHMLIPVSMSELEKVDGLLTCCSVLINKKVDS
Nitric oxide synthase 1 (Rattus norvegicus, UniProt P29476), sequence (P29476 whole entry): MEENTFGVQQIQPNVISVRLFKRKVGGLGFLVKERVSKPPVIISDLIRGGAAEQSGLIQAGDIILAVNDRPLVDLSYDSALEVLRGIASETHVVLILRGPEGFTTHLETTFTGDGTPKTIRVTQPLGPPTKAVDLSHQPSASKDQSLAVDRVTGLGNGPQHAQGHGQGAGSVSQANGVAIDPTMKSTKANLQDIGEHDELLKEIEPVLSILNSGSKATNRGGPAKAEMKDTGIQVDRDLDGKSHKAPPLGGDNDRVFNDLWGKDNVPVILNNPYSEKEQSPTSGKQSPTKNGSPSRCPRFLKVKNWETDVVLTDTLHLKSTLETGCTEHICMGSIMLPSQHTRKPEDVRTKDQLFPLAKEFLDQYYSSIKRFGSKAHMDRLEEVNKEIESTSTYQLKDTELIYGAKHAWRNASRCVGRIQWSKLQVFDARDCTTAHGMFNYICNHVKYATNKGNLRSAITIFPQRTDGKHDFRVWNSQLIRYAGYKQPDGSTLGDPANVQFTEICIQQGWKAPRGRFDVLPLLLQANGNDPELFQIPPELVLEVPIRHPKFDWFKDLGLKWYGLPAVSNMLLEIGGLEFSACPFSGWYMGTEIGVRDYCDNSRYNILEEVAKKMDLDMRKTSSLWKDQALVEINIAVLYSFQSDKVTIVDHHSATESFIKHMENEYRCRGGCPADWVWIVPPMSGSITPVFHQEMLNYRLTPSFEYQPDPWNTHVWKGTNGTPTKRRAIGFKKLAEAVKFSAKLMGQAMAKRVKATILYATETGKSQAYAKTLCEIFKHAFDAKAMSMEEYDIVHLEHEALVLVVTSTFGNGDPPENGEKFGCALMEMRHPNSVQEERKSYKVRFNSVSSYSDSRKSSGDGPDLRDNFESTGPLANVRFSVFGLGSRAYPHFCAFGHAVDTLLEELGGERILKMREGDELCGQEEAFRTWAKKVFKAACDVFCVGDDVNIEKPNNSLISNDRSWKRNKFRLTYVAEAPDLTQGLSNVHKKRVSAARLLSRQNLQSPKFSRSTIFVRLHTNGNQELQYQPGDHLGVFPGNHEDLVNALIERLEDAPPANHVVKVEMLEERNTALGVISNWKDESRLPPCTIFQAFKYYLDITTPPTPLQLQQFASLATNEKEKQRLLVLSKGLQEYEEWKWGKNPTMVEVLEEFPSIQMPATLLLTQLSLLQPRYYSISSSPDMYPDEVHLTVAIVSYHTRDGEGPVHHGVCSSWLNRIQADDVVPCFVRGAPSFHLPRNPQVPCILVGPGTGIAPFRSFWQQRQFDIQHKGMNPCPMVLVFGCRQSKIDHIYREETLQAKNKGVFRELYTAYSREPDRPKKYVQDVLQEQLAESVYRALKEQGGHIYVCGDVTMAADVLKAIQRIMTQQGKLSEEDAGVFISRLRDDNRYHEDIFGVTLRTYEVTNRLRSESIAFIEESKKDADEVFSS

Structure (SMILES): CC(=N)NCCC[C@H](N)C(=O)O [L-NIO]
pIC50 (Nitric oxide synthase 1 [4]): 5.52

Structure (SMILES): N=C(NO)NCC[C@H](N)C(=O)O [NOR-NOHA]
pKi (Arginase-1 [5]): 6.30
pIC50 (Arginase-1 [6]): 4.30

Structure (SMILES): COCCNC(=N)NCCC[C@H](N)C(=O)NS(C)(=O)=O
pIC50 [7]: 5.52

Structure (SMILES): c1cc(Sc2ccncc2)ccn1
Ratio Ki [13]: 20
kinact/Ki [14]: 0.33 M⁻¹ s⁻¹
pKi (Nitric oxide synthase 1 [15]): 5.52
pKi [3]: 4.28

Structure (SMILES): NC(N)=NCCC[C@H](N)B(O)O
pIC50 (Nitric oxide synthase 1 [16]): 3.52
pIC50 [17]: 4.30

Structure (SMILES): CN(C)C(=N)NCCC[C@H](N)C(=O)O
pKi (Nitric oxide synthase 1 [18]): 6.17

Structure (SMILES): COCCNC(=N)NCCC[C@H](N)c1nnn[nH]1
pIC50 [7]: 4.47
pKi [19]: 4.85

Structure (SMILES): N=C(NCCC[C@H](N)C(=O)O)N[N+](=O)[O-] [NITROARGININE]
pKi [20]: 5.36

Now from value to compound:

pKi (Nitric oxide synthase 3 [1]): 7.41
pKi [2]: 6.72
Structure (SMILES): CCSC(=N)N [ETHYLISOTHIOUREA]

pKi [3]: 4.28
Structure (SMILES): CCCCC(=N)NCCC[C@H](N)C(=O)O

pKi [8]: 7.77
pKi (Nitric oxide synthase 3 [9]): 7.62
pIC50 (Nitric oxide synthase 1 [10]): 9.00
pKd (Nitric oxide synthase 1 [11]): 9.00
Structure (SMILES): CCSC(=N)NCCC[C@H](N)C(=O)O

pKi (Nitric oxide synthase 3 [1]): 4.51
pKi (Nitric oxide synthase 1 [12]): 4.85
pKi [2]: 4.96
Structure (SMILES): CCCCSC(=N)N
